Assays:
Format in all cases: functional
[1] = organism: Cavia porcellus; test: Tested for the ability to inhibit spontaneous tone in guinea pig trachealis by 50%, activity expresses as negative logarithm of molar concentration
[2] = organism: Cavia porcellus; test: Tested for relaxation of guinea pig trachealis smooth muscle
[3] = organism: Rattus norvegicus; test: Tested for relaxation of rat aorta smooth muscle precontracted with 30 mM KCI by 50%, activity expresses as negative logarithm of molar concentration
[4] = organism: Rattus norvegicus; test: Tested for relaxation of rat aorta smooth muscle

SMILES | EC50 [1] | EC50 [3] | IA [2] | IA [4]
CCN(CC)/C(=N\C#N)C1=CC(C)(C)Oc2ccc([N+](=O)[O-])cc21 | > 31600 nM | > 31600 nM |  | 
CCN(C)/C(=N\C#N)C1=CC(C)(C)Oc2ccc([N+](=O)[O-])cc21 | 178 nM | > 31600 nM | 77.9% | 
CC1(C)Oc2ccc(C#N)cc2[C@H](N2CCCC2=O)[C@H]1O (single isomer, unassigned) [(-)-CROMAKALIM] |  |  | 85.1% | 74.7%
CC(N/C(=N\C#N)Nc1ccncc1)C(C)(C)C (configuration not stated) [PINACIDIL ANHYDROUS] |  |  | 97.3% | 91.9%

The next lines start with results.

EC50 [1] | EC50 [3] | SMILES | IA [2] | IA [4]
23.4 nM | 15.1 nM | C/N=C(/NC#N)C1=CC(C)(C)Oc2ccc([N+](=O)[O-])cc21 | 86.5% | 79.9%
646 nM |  | C/N=C(/NC#N)C1=CC(C)(C)Oc2ccc(C#N)cc21 | 86% | 73%
 | > 31600 nM | CN(C)/C(=N\C#N)C1=CC(C)(C)Oc2ccc([N+](=O)[O-])cc21 | 90.6% | 
170 nM | 89.1 nM | CC/N=C(/NC#N)C1=CC(C)(C)Oc2ccc([N+](=O)[O-])cc21 | 85.3% | 75.1%
